The text below walks through data of patent US11535599B2, “Benzisoxazole derivative” (Sumitomo Pharma Co., Ltd., priority 2020, dated 2022).

Assay [1] deals with human Cav3.1 (Homo sapiens (Human), UniProt O43497). The assay can be described thus: T-type calcium channel inhibitory activity, whole-cell patch-clamp with HEK293 cell. Type of assay: cell-based. Particulars: for inhibition at 600 µM: HEK293, 600 μmol/L, read-out: Cav3.1 % inhibitory rate; for pIC50: dose-reactive test, read-out: Cav3.1 IC50 (parenthesized). On the procedure: (§1) The inhibitory activity of the present compounds for T-type calcium channel was measured by whole-cell patch-clamp method with HEK293 cell (vendor of HEK 293 cell: ATCC, Manassas, Va., USA, builder of expressing cell: ChanTest Corporation., Cleveland, Ohio, USA), in which human Cav3.1, human Cav3.2, or human Cav3.3 is expressed. The culture medium used for HEK293 cell was prepared by adding fetal bovine serum (10%), sodium penicillin G (100 U/mL), streptomycin sulfate (100 μg/mL), and G418 (500 μg/mL) to a mixture medium of Dulbecco's modified Eagle's medium/Ham's F-12 medium. The whole-cell current was evaluated with IonWorks Barracuda system and Population Patch Clamp (both are provided by Molecular Device Corporation, Union City, Calif., USA). The extracellular recording solution used during the recording was Hanks' balanced salt solution. The internal recording solution used herein was 50 mmol/L CsCl, 90 mmol/L CsF, 5 mmol/L MgCl2, 1 mmol/L glycol ether diamine tetraacetic acid (EGTA), and 10 mmol/L 4-(2-hydroxyethyl)piperazine-1-ethanesulfonic acid (HEPES (pH 7.2). The holding voltage was held at −90 mV, then changed to −65 mV. 60 seconds later, −20 mV pulse was added thereto for 200 millisecond to activate the channel on plasma membrane and generate calcium current. The calcium current was recorded with an amplifier of IonWorks Barracuda system, and analyzed with a program of the system (Version 2.0.2). The record of the calcium current was obtained twice, before and after the addition of the compound. In the measurement after adding the compound, the cells were exposed to the recording solution containing the compound for more than 5 minutes and then the current was measured. In the analyses, the ratio of current readout after the compound addition per current readout before the compound addition was calculated, the calculated value was subtracted from one, and the obtained value was converted to percentage. […] The value obtained from each compound was canonicalized based on the two ends of values to obtain each inhibitory rate. The positive control compound used herein was TTA-A2 which is known as T-type calcium channel inhibitor. IC50 value was calculated with Hill equation.
Chain of human Cav3.1 (O43497 whole entry): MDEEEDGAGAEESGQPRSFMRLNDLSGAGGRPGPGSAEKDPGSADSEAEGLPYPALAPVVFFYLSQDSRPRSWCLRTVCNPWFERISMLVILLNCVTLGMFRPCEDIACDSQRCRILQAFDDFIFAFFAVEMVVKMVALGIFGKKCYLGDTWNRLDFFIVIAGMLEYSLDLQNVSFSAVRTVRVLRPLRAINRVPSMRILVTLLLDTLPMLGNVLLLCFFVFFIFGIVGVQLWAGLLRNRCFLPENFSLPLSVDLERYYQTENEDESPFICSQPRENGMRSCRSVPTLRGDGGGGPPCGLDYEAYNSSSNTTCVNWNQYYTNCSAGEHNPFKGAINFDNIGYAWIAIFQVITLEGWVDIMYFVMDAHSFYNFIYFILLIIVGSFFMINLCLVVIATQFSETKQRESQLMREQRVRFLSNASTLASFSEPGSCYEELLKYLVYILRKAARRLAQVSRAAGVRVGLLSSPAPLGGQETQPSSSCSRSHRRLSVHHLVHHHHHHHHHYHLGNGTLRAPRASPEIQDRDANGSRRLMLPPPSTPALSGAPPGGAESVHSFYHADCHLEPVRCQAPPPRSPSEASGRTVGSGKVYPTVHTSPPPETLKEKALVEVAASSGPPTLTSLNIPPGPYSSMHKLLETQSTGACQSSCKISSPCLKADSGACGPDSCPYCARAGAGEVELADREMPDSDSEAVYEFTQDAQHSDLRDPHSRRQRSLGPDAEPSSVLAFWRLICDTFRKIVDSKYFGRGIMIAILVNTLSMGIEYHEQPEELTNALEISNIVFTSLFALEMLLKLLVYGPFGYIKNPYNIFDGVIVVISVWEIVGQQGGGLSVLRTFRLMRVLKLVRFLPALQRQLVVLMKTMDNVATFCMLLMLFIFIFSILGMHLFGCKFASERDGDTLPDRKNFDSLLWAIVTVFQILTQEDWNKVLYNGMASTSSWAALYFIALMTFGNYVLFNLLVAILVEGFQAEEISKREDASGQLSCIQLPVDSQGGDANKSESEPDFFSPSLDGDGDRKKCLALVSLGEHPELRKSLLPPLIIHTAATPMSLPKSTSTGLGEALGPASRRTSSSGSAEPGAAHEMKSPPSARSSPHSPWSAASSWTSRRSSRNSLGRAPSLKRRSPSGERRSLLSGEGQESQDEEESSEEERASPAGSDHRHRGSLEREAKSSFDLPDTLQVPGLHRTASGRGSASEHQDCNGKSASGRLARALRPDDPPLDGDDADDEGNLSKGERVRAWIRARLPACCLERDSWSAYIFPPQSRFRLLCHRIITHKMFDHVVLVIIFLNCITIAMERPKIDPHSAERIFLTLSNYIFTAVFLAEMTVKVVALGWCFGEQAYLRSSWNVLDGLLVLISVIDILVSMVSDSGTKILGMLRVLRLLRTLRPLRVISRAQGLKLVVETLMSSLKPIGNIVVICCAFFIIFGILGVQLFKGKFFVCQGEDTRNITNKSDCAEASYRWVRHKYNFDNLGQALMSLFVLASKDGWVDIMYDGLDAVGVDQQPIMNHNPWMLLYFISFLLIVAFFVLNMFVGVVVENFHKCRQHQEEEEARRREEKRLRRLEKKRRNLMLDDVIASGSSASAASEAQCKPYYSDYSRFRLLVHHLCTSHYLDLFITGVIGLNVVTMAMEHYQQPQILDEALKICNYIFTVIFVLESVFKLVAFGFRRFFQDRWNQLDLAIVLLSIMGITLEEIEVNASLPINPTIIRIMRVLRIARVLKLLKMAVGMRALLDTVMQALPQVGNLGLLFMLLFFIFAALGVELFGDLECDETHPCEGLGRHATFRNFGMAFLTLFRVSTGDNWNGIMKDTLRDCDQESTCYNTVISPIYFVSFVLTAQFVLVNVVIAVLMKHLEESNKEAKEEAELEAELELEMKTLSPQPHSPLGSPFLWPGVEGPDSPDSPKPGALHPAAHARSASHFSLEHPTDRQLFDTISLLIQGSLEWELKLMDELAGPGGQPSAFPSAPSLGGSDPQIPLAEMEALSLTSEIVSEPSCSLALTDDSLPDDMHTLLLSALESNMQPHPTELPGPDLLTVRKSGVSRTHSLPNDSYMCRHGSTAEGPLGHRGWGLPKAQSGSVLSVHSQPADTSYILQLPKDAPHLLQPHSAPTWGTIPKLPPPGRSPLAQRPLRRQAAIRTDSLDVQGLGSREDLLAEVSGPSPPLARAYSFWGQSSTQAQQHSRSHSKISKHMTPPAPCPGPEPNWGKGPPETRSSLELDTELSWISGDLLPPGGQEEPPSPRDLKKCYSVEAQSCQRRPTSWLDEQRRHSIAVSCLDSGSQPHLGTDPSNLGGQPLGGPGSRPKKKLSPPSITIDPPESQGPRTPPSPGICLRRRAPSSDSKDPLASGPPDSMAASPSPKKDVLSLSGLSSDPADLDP
(§2) Each inhibitory rate (%) against T-type calcium channel at the evaluation concentration of the present compound (600 μmol/L) is shown in Table 12, in which the parenthesized values are IC50 values (μmol/L)) calculated from the dose-reactive test.

Assay [2] deals with human Cav3.2 (Homo sapiens (Human), UniProt O95180). The assay is described as above. Type of assay: cell-based. Particulars: for inhibition at 600 µM: HEK293, 600 μmol/L, read-out: Cav3.2 % inhibitory rate; for pIC50: dose-reactive test, read-out: Cav3.2 IC50 (parenthesized). On the procedure:
as §1, §2

Assay [3] addresses human Cav3.3 (Homo sapiens (Human), UniProt Q9P0X4). The description is as above. The class given is cell-based. Conditions: for inhibition at 600 µM: HEK293, 600 μmol/L, read-out: Cav3.3 % inhibitory rate; for pIC50: dose-reactive test, read-out: Cav3.3 IC50 (parenthesized). On the procedure: as §1, §2
The target in assay [4] is human CA-II (Homo sapiens (Human), UniProt P00918). The assay can be described thus: Activity for inhibiting carbonic anhydrase (CA). The class given is biochemical. Conditions: 4-nitrophenyl acetate substrate. The method, then: CA is a zinc metalloenzyme family which catalyzes reversible hydration between carbon dioxide, and bicarbonate and proton.
As a substance for decomposition by CA-II, 4-nitrophenyl acetate was used herein. 4-Nitrophenyl acetate is […] with CA-II to produce 4-nitrophenol. […] To the diluted solution were added […] (final concentration: 5 mmol/L) and the present compound of each concentration, and the mixture was incubated at 37° C. under shading for 30 minutes. […] The IC50 of the compound was obtained through the two-parameter logistic model with the inhibitory rate data in each concentration which was obtained from plural trials.

Assay [5] has as its target Rat striatum MAOB (Rattus norvegicus (Rat), UniProt P19643). The assay can be described thus: Activity for inhibiting monoamine oxidase B (MAOB). Type of assay: biochemical. On the procedure: MAOB is an enzyme involved in oxidative de-amino acid reaction of an endogenous monoamine neurotransmitter such as dopamine. […] The effect of the present compounds for inhibiting MAOB in rat striatum and simian striatum was tested.
Mitochondria⋅synaptosome fraction containing MAOB was prepared according to the following procedure. To striata of male Slc: Wistar rat (Japan SLC, Inc.) or male cynomolgus monkey (HAMRI CO., LTD.) was added 0.32 mol/L aqueous sucrose by 10 mL per 1 gram as wet weight of the tissue, and the mixture was homogenized. The homogenate was centrifuged at 4° C. at 1,000 g for 10 minutes, and the obtained supernatant was centrifuged again at 4° C. at 17,200 g for 20 minutes. To the obtained precipitate was added a prepared buffer solution (10 mmol/L Tris-HCl buffer solution (pH 7.4), 0.25 mol/L aqueous sucrose, 0.5 mmol/L EDTA-2K) by 10 mL per 1 gram as wet weight of the original tissue, and the mixture was centrifuged again at 4° C. at 17,200 g for 20 minutes. To the obtained precipitate was added the prepared buffer solution by 40 mL per 1 gram as wet weight of the original tissue. The mixture was suspended to be used as an enzyme homogenate solution.
As a substance to be degraded by MAOB, ^14C-labeled β-phenylethylamine ([^14C] β-PEA) was used. [^14C] β-PEA and the present compound solution diluted to each concentration were incubated with the enzyme homogenate solution at 37° C. for a given period, and then the reaction was stopped by adding 3 mol/L cold HCl thereto. The reaction product was extracted with a mixture of water-saturated toluene and ethyl acetate (1:1). The supernatant organic layer was separated, a liquid scintillation cocktail (ACSII, GE Healthcare) was added to the separated organic layer, and the radioactivity was measured with a liquid scintillation counter (TRI-CARB 3100TR, Packard). The IC50 value of each compound was determined based on two parameter logistic model with the inhibitory data of each concentration, said data were obtained from plural trials.

Assay [6] deals with unilateral lesion model of nigrostriatal dopamine neuron induced with 6-OHDA. As to the kind of experiment: Extending duration of levodopa-induced rotational behavior in 6-OHDA unilateral lesion model. Type of assay: in vivo, rat. Conditions: Examples 10 or 30 mg/kg oral; rasagiline 0.6 mg/kg; with levodopa 5 mg/kg i.p.
Assay [7] relates to reserpine-induced Parkinson's disease model mouse. The assay can be described thus: Potentiating effect of levodopa-induced hyperactivity in reserpine-induced Parkinson's disease model mouse. Type of assay: in vivo. Particulars: Examples 12.5 or 25 mg/kg oral; rasagiline 3 or 10 mg/kg; with levodopa 200 mg/kg i.p. On the procedure:
Dopamine-depleted mice due to reserpine treatment are model mice of akinesia symptoms in Parkinson's disease, said symptoms are relieved with levodopa (L-DOPA). The effect of the present compounds for potentiating the levodopa's effect was tested.
In the present test, male Crl: CD1 (ICR) mice (CHARLES RIVER LABORATORIES JAPAN, INC.) were used. 20-24 hours before starting the movement measurement, reserpine (3 mg/kg) was intraperitoneally administered to the mouse. One hour before starting the movement measurement, the present compound (12-.5 mg/kg or 25 mg/kg of. Examples 1, 2, 3, 4, and 5) was orally administered to the mouse. Shortly before starting the movement measurement, levodopa (200 mg/kg) with benserazide whose amount was ¼ of levodopa in free form was intraperitoneally administered to the mouse. The movement measurement was carried out for 90 minutes, and each total movement was compared.

The mark [8] stands for this setting: [14C] β-PEA substrate, read-out: Rat striatum MAOB IC50.

Each structure is given as a SMILES string. pIC50: −log10 of the molar value. Where two headings read alike, the source gives them in different places. Bounds are passed on as bounds.

Chain of Rat striatum MAOB (P19643 whole entry): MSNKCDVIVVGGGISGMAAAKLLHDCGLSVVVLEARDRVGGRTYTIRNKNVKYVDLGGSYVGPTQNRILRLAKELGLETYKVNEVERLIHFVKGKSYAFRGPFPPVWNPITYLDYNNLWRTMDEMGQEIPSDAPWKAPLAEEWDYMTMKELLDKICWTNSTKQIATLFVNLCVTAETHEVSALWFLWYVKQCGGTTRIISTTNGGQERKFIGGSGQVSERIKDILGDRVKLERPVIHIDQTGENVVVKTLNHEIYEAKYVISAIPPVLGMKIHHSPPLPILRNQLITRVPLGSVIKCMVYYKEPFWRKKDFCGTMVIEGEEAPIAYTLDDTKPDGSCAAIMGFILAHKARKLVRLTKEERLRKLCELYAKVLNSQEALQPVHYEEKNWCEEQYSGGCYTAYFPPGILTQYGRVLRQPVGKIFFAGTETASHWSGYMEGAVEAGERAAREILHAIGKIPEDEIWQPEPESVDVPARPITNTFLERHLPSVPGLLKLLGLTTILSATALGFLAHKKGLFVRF
Chain of human Cav3.3 (Q9P0X4 whole entry): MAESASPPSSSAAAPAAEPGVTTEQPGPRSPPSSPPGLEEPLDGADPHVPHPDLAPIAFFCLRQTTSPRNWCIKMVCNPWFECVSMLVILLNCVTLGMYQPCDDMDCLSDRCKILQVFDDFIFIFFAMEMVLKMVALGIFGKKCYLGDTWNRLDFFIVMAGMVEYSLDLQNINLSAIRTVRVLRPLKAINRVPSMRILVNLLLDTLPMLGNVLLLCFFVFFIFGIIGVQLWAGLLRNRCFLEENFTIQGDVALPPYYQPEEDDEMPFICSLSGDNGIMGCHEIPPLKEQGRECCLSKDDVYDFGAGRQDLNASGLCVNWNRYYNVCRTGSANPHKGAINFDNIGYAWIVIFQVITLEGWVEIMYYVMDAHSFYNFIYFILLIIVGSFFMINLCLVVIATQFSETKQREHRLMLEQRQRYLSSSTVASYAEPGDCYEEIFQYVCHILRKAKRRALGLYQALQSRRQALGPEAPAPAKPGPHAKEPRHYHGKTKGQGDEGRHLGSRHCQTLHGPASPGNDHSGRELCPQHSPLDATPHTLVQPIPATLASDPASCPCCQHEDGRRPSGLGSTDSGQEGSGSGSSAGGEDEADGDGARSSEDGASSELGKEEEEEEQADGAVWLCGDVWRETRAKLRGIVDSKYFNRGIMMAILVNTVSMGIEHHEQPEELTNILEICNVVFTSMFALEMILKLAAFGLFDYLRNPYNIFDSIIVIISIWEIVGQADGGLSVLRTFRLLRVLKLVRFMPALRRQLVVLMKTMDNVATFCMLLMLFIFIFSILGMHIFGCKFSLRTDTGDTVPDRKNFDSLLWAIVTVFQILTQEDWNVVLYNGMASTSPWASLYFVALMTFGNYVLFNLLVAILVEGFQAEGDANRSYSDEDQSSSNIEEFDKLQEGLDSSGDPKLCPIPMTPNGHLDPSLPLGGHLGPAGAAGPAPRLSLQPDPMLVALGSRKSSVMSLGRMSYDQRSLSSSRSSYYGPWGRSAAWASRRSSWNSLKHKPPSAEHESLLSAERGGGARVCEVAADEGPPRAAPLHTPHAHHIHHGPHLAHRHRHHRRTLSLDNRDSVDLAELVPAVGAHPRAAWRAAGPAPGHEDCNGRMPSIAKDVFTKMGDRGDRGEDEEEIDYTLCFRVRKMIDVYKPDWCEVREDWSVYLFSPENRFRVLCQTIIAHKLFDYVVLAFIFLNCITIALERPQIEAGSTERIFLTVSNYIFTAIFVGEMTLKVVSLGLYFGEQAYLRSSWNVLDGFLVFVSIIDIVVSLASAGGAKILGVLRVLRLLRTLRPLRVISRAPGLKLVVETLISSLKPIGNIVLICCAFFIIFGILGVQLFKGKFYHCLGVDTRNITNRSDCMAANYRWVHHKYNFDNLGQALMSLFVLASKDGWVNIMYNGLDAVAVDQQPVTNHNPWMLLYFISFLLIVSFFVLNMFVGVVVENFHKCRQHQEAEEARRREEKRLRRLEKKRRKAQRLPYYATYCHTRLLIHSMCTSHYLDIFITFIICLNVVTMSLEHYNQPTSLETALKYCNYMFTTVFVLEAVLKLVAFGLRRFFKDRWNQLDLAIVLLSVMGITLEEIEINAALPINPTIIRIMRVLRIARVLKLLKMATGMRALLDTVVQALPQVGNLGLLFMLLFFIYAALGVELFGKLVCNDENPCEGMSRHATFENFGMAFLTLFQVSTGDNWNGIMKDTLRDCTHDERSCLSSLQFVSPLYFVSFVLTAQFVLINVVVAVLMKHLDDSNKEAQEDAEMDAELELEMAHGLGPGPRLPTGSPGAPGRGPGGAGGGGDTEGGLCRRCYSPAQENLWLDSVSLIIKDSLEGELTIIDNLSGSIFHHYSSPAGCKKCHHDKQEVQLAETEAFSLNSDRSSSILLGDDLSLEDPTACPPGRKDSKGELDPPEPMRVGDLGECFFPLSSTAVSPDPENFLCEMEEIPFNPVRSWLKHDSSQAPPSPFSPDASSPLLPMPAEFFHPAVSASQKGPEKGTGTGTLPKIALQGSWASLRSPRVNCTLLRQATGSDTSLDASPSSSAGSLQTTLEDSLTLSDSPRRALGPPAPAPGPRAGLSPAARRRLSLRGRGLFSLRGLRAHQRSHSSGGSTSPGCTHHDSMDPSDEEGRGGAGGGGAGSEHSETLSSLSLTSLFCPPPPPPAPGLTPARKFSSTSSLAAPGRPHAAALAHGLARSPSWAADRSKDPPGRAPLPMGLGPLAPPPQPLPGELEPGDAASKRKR

By pIC50 is commonly meant the negative decadic logarithm of the IC50, by convention in mol/L. For the molecule `CC(F)(c1noc2ccccc12)S(N)(=O)=O` (stereo not shown) [Example 8, 1-(1,2-benzoxazol-3-yl)-1-fluoroethane-1-sulfonamide], the figures for the inhibition at 600 µM in assay [1], in assay [2] and in assay [3] were 83.1%, 70.3% and 73%, respectively. The pIC50 in assay [1] was 3.67; in assay [2] it was 3.50; in assay [3] it was 3.49; in assay [4], 5.66; in assay [5] (setting [8]) it was below 3.22. The “rotational number in the late phase (100-120 minutes)” value (“rotational number in the late phase” for short) in assay [6] was “did not show statistically-significant increase, but showed a tendency to increase the rotational number in the late phase”.

For `COc1ccc2onc(C(C)S(N)(=O)=O)c2c1` (stereo not shown) [Example 10, 1-(5-methoxy-1,2-benzoxazol-3-yl)ethane-1-sulfonamide], the inhibition at 600 µM was determined as 68.5% in assay [1], 57.7% in assay [2] and 69.7% in assay [3]. In assay [5] (setting [8]), the pIC50 is below 3.22.

Regarding `NS(=O)(=O)C1(c2noc3ccccc23)CC1` [Example 5, 1-(1,2-benzoxazol-3-yl)cyclopropane-1-sulfonamide], the figures for the inhibition at 600 µM in assay [1], in assay [2] and in assay [3] were 64.5%, 54% and 55.6%, respectively. Besides, in assay [7], the “levodopa-induced hyperactivity (total movement, 90 minutes)” value (from here on “levodopa-induced hyperactivity”) is reported as “significantly-potentiating effect of levodopa-induced hyperactivity”. Besides, the figures for the negative logarithm of the IC50 (pIC50) in assay [4] and in assay [5] (setting [8]) were 5.28 and below 3.22, respectively. Moreover, the “rotational number in the late phase” value in assay [6] is “did not show statistically-significant increase, but showed a tendency to increase the rotational number in the late phase”.

On to `NS(=O)(=O)C(F)c1noc2ccccc12` (stereo not shown) [Example 3, 1-(1,2-benzoxazol-3-yl)-1-fluoromethane-sulfonamide], for which the inhibition at 600 µM in assay [1] turned out to be 69.9%; in assay [2] it was 64%; in assay [3], 61%. The pIC50 in assay [1] was 3.49; in assay [2], 3.44; in assay [3], 3.36; in assay [4] it was 7.08; in assay [5] (setting [8]), 4.00. The “levodopa-induced hyperactivity” value in assay [7] is listed as “significantly-potentiating effect of levodopa-induced hyperactivity”. The “rotational number in the late phase” value in assay [6] was “did not show statistically-significant increase, but showed a tendency to increase the rotational number in the late phase”.

With `CCC(c1noc2ccccc12)S(N)(=O)=O` (stereo not shown) [Example 6, 1-(1,2-benzoxazol-3-yl)propane-1-sulfonamide], the inhibition at 600 µM was determined as 80.4% in assay [1], 67.4% in assay [2] and 72.9% in assay [3]. The results for the negative logarithm of the IC50 (pIC50) in assay [4] and in assay [5] (setting [8]) were 4.34 and below 3.22, respectively.

In the case of `CC(c1noc2ccc(F)cc12)S(N)(=O)=O` (stereo not shown) [Example 11, 1-(5-fluoro-1,2-benzoxazol-3-yl)ethane-1-sulfonamide], the inhibition at 600 µM in assay [1] is 56%; in assay [2] it was 50.8%; in assay [3], 54.3%. In addition, in assay [5] (setting [8]), the pIC50 was below 3.22.

`CC(C)C(c1noc2ccccc12)S(N)(=O)=O` (stereo not shown) [Example 9, 1-(1,2-benzoxazol-3-yl)-2-methylpropane-1-sulfonamide]: the figures for the inhibition at 600 µM in assay [1], in assay [2] and in assay [3] were 96.5%, 96.9% and 94.3%, respectively.

Take `CCCC(c1noc2ccccc12)S(N)(=O)=O` (stereo not shown) [Example 7, 1-(1,2-benzoxazol-3-yl)butane-1-sulfonamide]: the values for the pIC50 in assay [4] and in assay [5] (setting [8]) were 4.48 and below 3.22, respectively.

Regarding `CC(C)(c1noc2ccccc12)S(N)(=O)=O` [Example 2, 2-(1,2-benzoxazol-3-yl)propane-2-sulfonamide], the inhibition at 600 µM in assay [1] was determined as 72.7%; in assay [2], 64%; in assay [3], 70%. In addition, the “levodopa-induced hyperactivity” value in assay [7] is listed as “significantly-potentiating effect of levodopa-induced hyperactivity”. The pIC50 in assay [4] was 4.10; in assay [5] (setting [8]), below 3.22. The “rotational number in the late phase” value in assay [6] was “significantly increased the rotational number in the late phase”.

As to `CC(c1noc2ccc(Cl)cc12)S(N)(=O)=O` (stereo not shown) [Example 12, 1-(5-chloro-1,2-benzoxazol-3-yl)ethane-1-sulfonamide], the inhibition at 600 µM in assay [1] came out at 95%; in assay [2], 91.5%; in assay [3] it was 93%. For the same molecule, in assay [5] (setting [8]), the pIC50 is 3.82.

With `C[C@H](NCc1ccc(OCc2cccc(F)c2)cc1)C(N)=O` [safinamide, reference compound], the pIC50 in assay [5] (Rat striatum MAOB IC50, [14C] β-PEA substrate) was 6.71. Moreover, in assay [5] (rat striatum, in words), the MAOB inhibitory action entry is on record as “strong MAOB inhibitory action”. Besides, the “rotational number in the late phase” value in assay [6] is reported as “did not show statistically-significant increase, but showed a tendency to increase the rotational number in the late phase”.

For the molecule `NS(=O)(=O)C(F)(F)c1noc2ccccc12` [Example 4, 1-(1,2-benzoxazol-3-yl)-1,1-difluoromethane-sulfonamide], the “levodopa-induced hyperactivity” value in assay [7] was “significantly-potentiating effect of levodopa-induced hyperactivity”. Moreover, the pIC50 was 7.64 in assay [4] and 3.41 in assay [5] (setting [8]).
